Data on one compound can be found in US20190328721A1, “METHOD OF ACTIVATING DENDRITIC CELLS” (KOREA INSTITUTE OF SCIENCE AND TECHNOLOGY, priority 2018, published 2019).

Structures are written as SMILES.

For data set [1], the system named is CT26.CL25 cells. Nature of the data set: Anti-cancer immune memory (tumor removal and re-injection). Type of data set: in vivo, Balb/c wild-type mice. As to conditions: 10 mg/kg intravenous; compared with PBS control. As for the experimental part:
To confirm whether the ROCK inhibitor induces anti-cancer immune memory, CT26.CL25 cells (1×10^6 cells) were injected into the right flank of Balb/c wild-type mice to induce cancer, and then 10 mg/kg of Y27632 was administered continuously for two consecutive days via intravenous injection, followed by a day of rest as a cycle, followed by 3 cycles of 3-day intervals. After 22nd days from the day of cancer injection, the induced tumor was removed by surgery. One week later, the same cancer cells (7×10^6 cells) were injected to the other flank and the growth of tumor was investigated (FIG. 12A).

Data set [2] concerns B16F10-Ova cells. Nature of the data set: B16F10-Ova tumor model. Type of data set: in vivo, C57L/B6 wild-type mice. As to conditions: 10 mg/kg intravenous. As to the method:
CT26.CL25 cancer cells (1×10^6) expressing β-galactosidase were subcutaneously injected into the left back of a Balb/c wild type mice to generate a tumor model Similarly, an […] tumor model was prepared by subcutaneously injecting melanoma cell line B16F10-Ova cells (5×10^5) into the left back of C57L/B6 wild-type mice to induce cancer.
In the case of the CT26.CL25 cancer cell line, 6 days after the injection of the cancer cells, and in the case of B 16F10-Ova, 9 days after the injection of the cancer cells, Y27632 was administered by intravenous injection at a dose of 10 mg/kg as indicated in FIG. 8a. In the case of the CT26.CL25 model, the mice were sacrificed on the 22nd day after the injection of the cancer cells and in the case of the B16F10-Ova cancer model, the mice were sacrificed on the 20th day after the injection of the cancer cells (FIG. 8A). As a negative control, phosphate-buffered saline was administered instead of Y27632.
The tumor tissues of the mice were excised, an ex vivo image was taken and the tumor tissue were weighed (FIG. 8B). In addition, before the mice were sacrificed, changes in body weights were measured at intervals of 3 days from the 6th day of the cancer cell injection in the CT26.CL25 cancer model and at intervals of 3 days from the 9th day in the B16F10-Ova cancer model (FIG. 8c). Length (L) and width (W) of the tumor tissues were measured, and the volume of the tumor tissues over time was calculated using the following formula (FIGS. 8D and 8E):
The volume of tumor tissue (V[mm^3])=(L[mm])[…] (W[mm])^2×0.5.

The test system of data set [3] is bone marrow-derived dendritic cells (BMDCs). Nature of the data set: BMDC maturation markers CD40 and CD86 in vitro. Type of data set: cell-based, mice. To be noted: 30 μM, 1 hour. As for the experimental part:
In addition, the present inventors used pretreatment with 30 μM of Y27632 for 1 hour of bone marrow-derived dendritic cells (BMDCs) stained with cell marker CellTracker CMFDA (Thermo Fisher Scientific, Inc., USA) and then removed floating tumor cells by withdrawing removing the supernatant. Twenty hours later, the expression of CD40 and CD86 was analyzed by flow cytometry.
The present inventors then investigated whether dendritic cell maturation was promoted by the combination treatment of doxorubicin and Y27632. Specifically, 30 μM of Y27632 was used to pretreat bone marrow-derived dendritic cells (BMDC) stained with CellTracker CMFDA (Thermo Fisher Scientific, USA) for 1 hour, and then doxorubicin-treated CT26.CL25 was co-cultured for 4 hours, and floating cancer cells were removed by withdrawing supernatant. The expression level of CD40 and CD86, which are dendritic cell maturation markers, was analyzed by flow cytometry after 20 hours.

Data set [4] deals with OT-1 T cells. Nature of the data set: Proliferation of injected CFSE-stained OT-1 T cells in B16F10-Ova-bearing mice. Type of data set: in vivo. To be noted: 3 days after injection. As to the method: Specifically, Y27632 was administered to the B16F10-Ova-bearing cancer model mice according to the administration schedule described in Example 2-1, and OT-1 T cells stained with CFSE (carboxyfluorescein succinimidyl ester, Thermo Fisher Scientific, Inc., USA) were injected into the cancer model mice and the degree of proliferation of T cells was confirmed 3 days later (FIG. 14A).

Data set [5] concerns macrophages (F4/80+ cells) and dendritic cells (CD11c+ cells). The data set can be described thus: In vivo phagocytosis of injected apoptotic thymocytes by spleen phagocytes. The arrangement: species or system mice. To be noted: 10 mg/kg intraperitoneally; spleen after 1 hour. As to the method:
The present inventors investigated whether the phagocytosis caused by the ROCK inhibitor could be enhanced not only in vitro but also in vivo. For this purpose, thymocytes stained with CFSE (carboxyfluorescein succinimidyl ester, Thermo Fisher Scientific, Inc., USA) and in which apoptosis was induced by 1 μM dexamethasone were injected to the blood vessel of mice who were pre-injected with 10 mg/kg of Y27632 intraperitoneally. After 1 hour, the spleen was extracted from the mice and the spleen was single celled. The phagocytic activities of macrophages (F4/80^+ cells) and dendritic cells (CD11c^+ cells) against apoptotic thymocytes were analyzed (FIGS. 7B and 7C).

In data set [6] the test system is MMTV/Neu mice tumors. Nature of the data set: Spontaneous cancer development model. Type of data set: in vivo. As to the method:
The survival rate was recorded over up to 100 days. When the size of tumor was over 2,500 mm^3, the animal was euthanized (FIG. 20C).
Specifically, fluorescence immunohistochemical analysis was performed using anti-CD8 antibodies in the cancer tissues after the end of the experiment.
Accordingly, the present inventors investigated whether the combination of the drugs can increase the anti-cancer immunity even in the spontaneous cancer development model. […] After completion of the experiment, the present inventors isolated the spleen cells and treated with peptide against rat-Neu, an antigen expressed in the cancer of the spontaneous cancer development model, and after 48 hours, the culture supernatant was collected and IFN-γ was quantified using an ELISA kit (R&D Systems, Inc, USA).

Data set [7] relates to CT26.CL25 cells. Nature of the data set: Annexin V flow cytometry for direct death of cancer cells. Type of data set: cell-based, mouse. To be noted: 30 μM, 24 hours. As to the method: (§1) Specifically, the present inventors treated CT26.CL25 cells and B16F10-Ova cells with 30 μM of the ROCK inhibitor Y27632 for 24 hours, and performed flow cytometry analysis using FITC-anti-Annexin V antibodies (Abcam, USA). On the other hand, cells were treated with 10 μg of TRAIL, 0.25 μM of doxorubicin, 2.5 μM of doxorubicin, or 25 μM of doxorubicin, respectively, for 4 hours, as positive controls.

Data set [8] has as its system B16F10-Ova cells. Described as above. Type of data set: cell-based, mouse. To be noted: 30 μM, 24 hours. As to the method: as §1

As for `C[C@@H](N)[C@H]1CC[C@H](C(=O)Nc2ccncc2)CC1` [Y27632], in data set [1], the “proportion of tumor-free mice after re-injection of cancer cells” value is recorded as “significantly increased”. Also, in data set [2], the “body weight of the mice” value is “no significant change” and the “volume of the tumors” value was “significantly decreased”. Besides, the “weight of the tumors” value in data set [2] (day 20) was “significantly decreased”. Besides, in data set [3] (co-cultivation with CT26.CL25, analysed twenty hours later), the “DC maturation (CD40 and CD86 expression) of BMDCs” value was “did not increase”. In data set [3] (co-culture 4 hours, analysed after 20 hours), the “dendritic cell maturation (CD40 and CD86) with doxorubicin-treated CT26.CL25” value was “increased”. For the same compound, in data set [4], the “proliferation of OT-1 T cells” value is “significantly increased”. In data set [5], the “phagocytosis of spleen dendritic cells against apoptotic thymocytes” value was “significantly enhanced” and the “phagocytosis of spleen macrophages against apoptotic thymocytes” value is on record as “significantly enhanced”. For the same compound, in data set [6] (48 hours), the “anti-cancer immunity (IFN-γ of spleen cells treated with rat-Neu peptide)” value is recorded as “increased”. For the same compound, in data set [6] (anti-CD8 fluorescence immunohistochemistry), the “CD8+ T cells in tumor tissues (infiltration)” value was “some T cell infiltration”. The “death of cancer cells (Annexin V)” value in data set [7] is listed as “not to increase the death of cancer cells”. In addition, the “death of cancer cells (Annexin V)” value in data set [8] is “not to increase the death of cancer cells”.
